A word on the IC50: it is the concentration needed to halve the response being measured.

Some results are limits rather than exact numbers.

T1 sequence (O76083 1-533 isoform O76083-2): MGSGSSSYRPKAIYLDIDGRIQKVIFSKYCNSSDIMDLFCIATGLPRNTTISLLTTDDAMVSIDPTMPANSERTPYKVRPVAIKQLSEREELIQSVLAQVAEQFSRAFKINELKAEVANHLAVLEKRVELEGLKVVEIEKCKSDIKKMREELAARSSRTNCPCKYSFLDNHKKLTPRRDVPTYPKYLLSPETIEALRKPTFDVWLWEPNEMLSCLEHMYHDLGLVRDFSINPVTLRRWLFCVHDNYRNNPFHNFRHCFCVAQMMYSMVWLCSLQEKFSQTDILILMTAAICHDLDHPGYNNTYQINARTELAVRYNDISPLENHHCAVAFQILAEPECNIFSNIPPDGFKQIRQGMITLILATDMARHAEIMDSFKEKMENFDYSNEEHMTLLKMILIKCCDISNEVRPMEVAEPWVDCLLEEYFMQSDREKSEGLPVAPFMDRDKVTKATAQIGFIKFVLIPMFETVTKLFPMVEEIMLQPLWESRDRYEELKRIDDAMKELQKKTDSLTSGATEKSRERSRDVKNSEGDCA

The first test addresses T1, PDE9A2 (Homo sapiens, UniProt O76083).
T1 construct: purchased Reaction Biology Corporation, Malvern, Pa
The test can be described thus: Phosphodiesterase enzyme screening assay, PDE9A2. The test is classed as biochemical. As to conditions: 4.0 μM cGMP substrate, 1 hour at R.T.; read-out: Band (PDE9A2 IC50). An excerpt:
Compounds of the invention were screened against PDE1A, PDE1B, PDE2A, PDE3A, PDE3B, PDE4A1A, PDE4B1, PDE4D3, PDE5A1, PDE6C, PDE7A, PDE8A1, PDE9A2, PDE10A2 AND PDE11A isoforms of the phosphodiesterase enzyme to determine activity and overall selectivity through comparative analysis. […] Where 8-methoxy-IBMX and Zaprinast were used as reference inhibitors.
The phosphodiesterase enzyme isoforms were obtained from a commercial retailer (Reaction Biology Corporation, Malvern, Pa.) for use in the instant screening assay.
The analysis was completed using the Caliper LabChip 3000 and a 12-sipper LabChip. LabChip assays are separations-based, meaning that the product and substrate are electrophoretically separated, thereby minimizing interferences and yielding the highest data quality available on any screening platform. […] High Z′ values, few false positives, few false negatives and analytical quality reproducibility are the reasons cited for the increasing reliance on the LabChip assays.
The off-chip incubation mobility-shift phosphodiesterase assay uses a microfluidic chip to measure the conversion of a fluorescent cyclic AMP substrate to a 5′-AMP product, or a cyclic GMP substrate to a 5′-GMP product. The reaction mixture, from a microtiter plate well, is introduced through a capillary sipper onto the chip, where the fluorescent substrate and product are separated by electrophoresis and detected via laser-induced fluorescence. […] The precision of microfluidics allows researchers to detect subtle interactions between drug candidates and therapeutic targets.
Reactions were carried out in 100 mM HEPES (pH 7.5), 5 mM MgCl2, 1 mM DTT, 0.003% Brij, 4.0 μM cGMP substrate. The reaction was started by addition of cGMP or cAMP and incubated for 1 hour at R.T. The reaction was terminated by the addition of stop buffer containing 100 mM HEPES (pH 7.5), 15 mM EDTA, 0.015% Brij-35, 5% DMSO. Cyclic AMP/GMP substrate and 5′-AMP/5′-GMP product were separated by charge using electrophoretic mobility shift. Product formed was compared to control wells to determine inhibition or enhancement of enzyme activity.
Data points were averages of quadruplicate wells and error bars represented the SEM for each point.
As for `CC1CN(Cc2ccccc2)CC1c1nn2c(CC(F)(F)F)ncc2c(=O)[nH]1` (single isomer, unassigned; (+)) [(+)-2-((3,4-trans)-1-benzyl-4-methylpyrrolidin-3-yl)-7-(2,2,2-trifluoroethyl) imidazo [5,1-f] [1,2,4] triazin-4 (3H)-one], the half-inhibitory concentration (IC50) was under 1000 nM.

Still in this test, the particulars now being: Table 1; 10 concentrations; 4.0 μM cGMP substrate; 1 hour at R.T.; read-out: Band (PDE9A2 IC50).
Take `CCS(=O)(=O)N1CC(C)C(c2nn3c(C4CCOCC4)ncc3c(=O)[nH]2)C1` (single isomer, unassigned; (+)) [(+)-2-((3,4-trans)-1-(ethylsulfonyl)-4-methylpyrrolidin-3-yl)-7-(tetrahydro-2H-pyran-4-yl)imidazo[5,1-f][1,2,4]triazin-4(3H)-one]: the IC50 lay in the range of 1000 to 10000 nM.

On to `CC1CN(C(=O)c2ccccc2)CC1c1nn2c(C3CCOCC3)ncc2c(=O)[nH]1` (single isomer, unassigned; (+)) [(+)-2-((3,4-trans)-1-benzoyl-4-methylpyrrolidin-3-yl)-7-(tetrahydro-2H-pyran-4-yl)imidazo[5,1-f][1,2,4]triazin-4(3H)-one], for which the half-inhibitory concentration (IC50) lay in the range of 1000 to 10000 nM.

In the case of `Cc1ccc(F)cc1-c1ncc2c(=O)[nH]c(C3CN(Cc4ccccc4)CC3C)nn12` (single isomer, unassigned; (+)) [(+)-2-((3,4-trans)-1-benzyl-4-methylpyrrolidin-3-yl)-7-(5-fluoro-2-methylphenyl)imidazo[1,5-f][1,2,4]triazin-4(3H)-one], the 50% inhibitory concentration (IC50) was under 1000 nM.

As to `CC1CN(Cc2ccccc2)CC1c1nn2c(C3CCOCC3)ncc2c(=O)[nH]1` (single isomer, unassigned; (+)) [(+)-2-((3,4-trans)-1-benzyl-4-methylpyrrolidin-3-yl)-7-(tetrahydro-2H-pyran-4-yl)imidazo[1,5-f][1,2,4]triazin-4(3H)-one], the IC50 is under 1000 nM.

As to `CC1CN(C(=O)c2ccccc2C#N)CC1c1nn2c(C3CCOCC3)ncc2c(=O)[nH]1` (single isomer, unassigned; (+)) [(+)-2-((3,4-trans)-3-methyl-4-(4-oxo-7-(tetrahydro-2H-pyran-4-yl)-3,4-dihydroimidazo[5,1-f][1,2,4]triazin-2-yl)pyrrolidine-1-carbonyl)benzonitrile], the IC50 lay in the range of 1000 to 10000 nM.

Staying with this test, now noted: read-out: Band (PDE9A2 IC50).
For the compound `CC1CN(Cc2nc3ccccn3n2)CC1c1nn2c(-c3ccccc3)ncc2c(=O)[nH]1` (single isomer, unassigned; (+)) [(+)-2-((3,4-trans)-1-([1,2,4]triazolo[1,5-a]pyridin-2-ylmethyl)-4-methylpyrrolidin-3-yl)-7-phenylimidazo[5,1-f][1,2,4]triazin-4(3H)-one], the 50% inhibitory concentration (IC50) was under 1000 nM.

Turning to `CC1CN(CC2CCCC2)CC1c1nn2c(C3CCOCC3)ncc2c(=O)[nH]1` (single isomer, unassigned; (+)) [(+)-2-((3,4-trans)-1-(cyclopentylmethyl)-4-methylpyrrolidin-3-yl)-7-(tetrahydro-2H-pyran-4-yl)imidazo[5,1-f][1,2,4]triazin-4(3H)-one], the IC50 was under 1000 nM.

For `CC1CN(CC2CC2)CC1c1nn2c(C3CCOCC3)ncc2c(=O)[nH]1` (single isomer, unassigned; (+)) [(+)-2-((3,4-trans)-1-(cyclopropylmethyl)-4-methylpyrrolidin-3-yl)-7-(tetrahydro-2H-pyran-4-yl)imidazo[5,1-f][1,2,4]triazin-4(3H)-one], the IC50 is 1000 to 10000 nM.

For `CC1CN(Cc2cn3ccccc3n2)CC1c1nn2c(-c3ccccc3)ncc2c(=O)[nH]1` (single isomer, unassigned; (+)) [(+)-2-((3,4-trans)-1-(imidazo[1,2-a]pyridin-2-ylmethyl)-4-methylpyrrolidin-3-yl)-7-phenylimidazo[5,1-f][1,2,4]triazin-4(3H)-one], the IC50 is under 1000 nM.

As for `CC1CN(Cc2ccccc2)CC1c1nn2c(C3CCCC3)ncc2c(=O)[nH]1` (single isomer, unassigned; (+)) [(+)-2-((3,4-trans)-1-benzyl-4-methylpyrrolidin-3-yl)-7-cyclopentylimidazo[5,1-f][1,2,4]triazin-4(3H)-one], the IC50 was under 1000 nM.

(Values after patent US9969742B2, “Imidazotriazinone compounds” (Ironwood Pharmaceuticals, Inc., priority 2012, dated 2018).)
